# Source: patent publication US20250360087A1, “COMPOSITIONS COMPRISING LIPID DROPLETS ENCAPSULATED WITHIN POLYSACCHARIDE WALLS AND USES THEREOF” (UNIVERSITY OF SOUTH AUSTRALIA, priority 2022, published 2025)
# Tests used:
# S. aureus ATCC 25923 = test: Minimum inhibitory concentration of rifampicin in S. aureus; type: cell-based; conditions: Staphylococcus aureus, ATCC25923; 24 h, 37° C., turbidity; read-out: MIC, concentration required to inhibit growth
# Experimental: Single colonies of S. aureus ATCC 25923 were suspended in 0.9% sterile saline to reach approximately 1×10^8 colony forming units (CFU)/mL (equivalent to an optical density of 0.08-0.12 at 600 nm). The bacterial suspension was further diluted 1/100 with broth. Bacterial suspension was added to 96-wells. […] The 96-well plate was incubated at 37° C. for 24 h. The plates were visually assessed for turbidity indicating growth of bacteria.
# S. aureus biofilms = test: In vitro biofilm study, crystal violet assay; type: cell-based, Staphylococcus aureus
# Experimental: Bacterial suspension was further diluted 1/15 with broth and subsequently added to the wells of a 96-well plate. The outer wells were filled with PBS (200 μL) for hydration purposes and the second right column contained sterile broth (100 μL) to serve as negative control. The plate was wrapped in aluminium foil and incubated on a 3D rotating platform at 70 rpm at 37° C. for 24 h to grow biofilms. After 24 h incubation, turbid biofilms sitting at the bottom of wells could be assessed visually. The broth in the wells of the plate was aspired gently by a vacuum pump without disturbing the biofilms and the wells were washed with 0.9% Saline (100 μL) twice to remove nonadherent bacteria. […] The plate was wrapped in aluminium foil and incubated on a 3D rotating platform at 70 rpm at 37° C. for 24 h. After 24 h of exposure to the formulations, supernatants were removed gently without disturbing the biofilms by a vacuum pump and the wells were washed with 0.9% Saline (100 μL) twice. Biofilms were fixed by oven heating at 60° C. for 1 h. […] The biofilm biomass of S. aureus was quantified by spectrometry at 595 nm in 96 well plate reader.
# RAW 264.7 macrophages = test: Cellular cytotoxicity, MTT assay; type: cell-based, Murine; conditions: after 1 h incubation
# Experimental: 100 μL of cell suspension at a density of 7000 cells per well was seeded in 96-well plate and incubated (37° C., 5% CO2) for 12 h to allow the attachment of cells. After incubation the supernatant was discarded and replaced with 200 μL of particle solution (in DMEM) at various concentrations (ranging from 10 to 100 μg/mL) and incubated for further 24 h. After incubation, the cells were washed with sterile PBS and 10 μL of MTT (3-(4,5-dimethylthiazol-2-yl)-2,5-diphenyltetrazolium bromide) solvent was added to each well prior to incubation for a further 4 h. Afterward, the supernatant was discarded, and the absorbance was read at OD=540 nm using a microplate reader.
compound,measurement,setting,value
CO[C@H]1/C=C/O[C@@]2(C)Oc3c(C)c(O)c4c(O)c(c(/C=N/N5CCN(C)CC5)c(O)c4c3C2=O)NC(=O)/C(C)=C\C=C\[C@H](C)[C@H](O)[C@@H](C)[C@@H](O)[C@@H](C)[C@H](OC(C)=O)[C@@H]1C [rifampicin],MIC,S. aureus ATCC 25923,< 0.0156 µg/mL
same,biofilm biomass remaining,S. aureus biofilms; exposure to 1 μg/mL of rifampicin,34%
same,reduction in biofilm biomass,"S. aureus biofilms; rifampicin 16 μg/mL, 24 h",up to 82%
same,biofilm reduction,"S. aureus biofilms; rifampicin 1 to 16 μg/mL, 24 h",more than 50%
Triton-X,cellular viability (positive control),RAW 264.7 macrophages,no cellular viability
